From ChEMBL document CHEMBL4330125, “Fluoromethylcyclopropylamine derivatives as potential in vivo toxicophores - A cautionary disclosure” (Bioorg Med Chem Lett, 2019)

Tests used:
Conditions in all cases: in vivo
[1] = Toxicity in CD-1 mouse at 5 mg/kg, po administered as single dose via gavage; format: organism-based
[2] = Toxicity in CD-1 mouse at 160 mg/kg, po administered as single dose via gavage; format: organism-based
[3] = Toxicity in CD-1 mouse assessed as ataxia at 5 mg/kg, po administered as single dose via gavage measured after 5 hrs; format: organism-based
[4] = Hepatotoxicity in CD-1 mouse assessed as appearance of pale yellow color organ at 10 mg/kg, po administered as single dose via gavage measured after 24 hrs; format: toxicity, organism-based
[5] = Toxicity in CD-1 mouse assessed as gastrointestinal bleeding at 10 mg/kg, po administered as single dose via gavage measured after 24 hrs; format: organism-based
[6] = Hepatotoxicity in CD-1 mouse assessed as appearance of mottled organ at 10 mg/kg, po administered as single dose via gavage measured after 24 hrs; format: toxicity, organism-based
[7] = Ratio of fCmax in CD-1 mouse at 10 mg/kg, po to IC50 for PARG in human HeLa cells; format: ADME, organism-based

| Compound | Activity [1] | Activity [3] | other results |
| --- | --- | --- | --- |
| Cn1cc(Cn2c(=O)c3cc(S(=O)(=O)NC4(C)CC4)ccc3n(Cc3ccn(C)n3)c2=O)cn1 | Non-Toxic |  | Activity [2]: Non-Toxic |
| CCn1c(=O)n(Cc2cc(C)on2)c(=O)c2cc(S(=O)(=O)NC3(CF)CC3)ccc21 |  | Toxic |  |
| Cn1cc(Cn2c(=O)c3cc(S(=O)(=O)NC4(CF)CC4)ccc3n(Cc3ccn(C)n3)c2=O)cn1 | Non-Toxic |  |  |
| Cn1cc(Cn2c(=O)c3cc(S(=O)(=O)NC4(CF)CC4)ccc3n(C)c2=O)cn1 |  | Toxic |  |
| CCn1c(=O)n(Cc2cnn(C)c2)c(=O)c2cc(S(=O)(=O)NC3(C)CC3)ccc21 | Non-Toxic | Toxic |  |
| CCn1c(=O)n(Cc2cnn(C)c2)c(=O)c2cc(S(=O)(=O)NC3(CF)CC3)ccc21 | Non-Toxic | Toxic | Activity [4]: Toxic; Activity [5]: Toxic; Activity [6]: Toxic; Ratio [7]: Nd(Toxic) |
| Cn1cc(Cn2c(=O)c3cc(S(=O)(=O)NC4(C)CC4)ccc3n(C)c2=O)cn1 | Non-Toxic | Toxic |  |
